Here are results for 28 molecules from patent US9856279B2 (AGIOS PHARMACEUTICALS, INC, priority 2011, dated 2018).

For the assay, the target named is IDH1 R132H (Homo sapiens, UniProt O75874, R132H). Put plainly: Assay for IDH1 R132H inhibitors (NADPH/aKG, resazurin detection). Particulars: enzyme assay of Example 12; read-out: IDH1R132H IC50. Type of assay: biochemical. Summed up:
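Read-out is resorufin fluorescence (Ex544/Em590) 5 min after adding a 30 μM resazurin detection mix. Before that, mutant enzyme (0.2 μg/ml in its mix) ran 50 min at room temperature with compound, 8 uM NADPH and 2 mM aKG (mix levels) in Tris pH 7.5 with NaCl, MgCl2, BSA.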

Chain of IDH1 R132H (O75874 whole entry R132H): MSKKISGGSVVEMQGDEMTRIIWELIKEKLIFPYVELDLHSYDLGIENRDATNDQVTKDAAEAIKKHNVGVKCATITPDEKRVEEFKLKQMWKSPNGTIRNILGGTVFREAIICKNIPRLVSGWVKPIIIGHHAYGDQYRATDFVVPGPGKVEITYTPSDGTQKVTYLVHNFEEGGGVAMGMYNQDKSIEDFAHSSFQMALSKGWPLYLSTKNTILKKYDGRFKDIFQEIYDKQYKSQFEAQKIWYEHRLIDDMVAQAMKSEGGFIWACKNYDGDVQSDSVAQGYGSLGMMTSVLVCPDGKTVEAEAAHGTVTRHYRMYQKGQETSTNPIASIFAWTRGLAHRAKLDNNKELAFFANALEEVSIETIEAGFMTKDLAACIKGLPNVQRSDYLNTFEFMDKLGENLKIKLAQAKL

The term IC50 denotes the concentration at which inhibition is half-maximal. Take `COCCC(=O)N1CCN(c2nc(C3CC3)c(Nc3ccnc(OC)c3)cc2C#N)C[C@H]1C` [Compound 682, (R)-6-cyclopropyl-2-(4-(3-methoxypropanoyl)-3-methylpiperazin-1-yl)-5-((2-methoxypyridin-4-yl)amino)nicotinonitrile]: the IC50 is below 500 nM.

Turning to `COCCC(=O)N1CCN(c2nc(C3CC3)c(Nc3ccnc(C(=O)OC)c3)cc2C#N)C[C@H]1C` [Compound 683, (R)-methyl 4-((5-cyano-2-cyclopropyl-6-(4-(3-methoxypropanoyl)-3-methylpiperazin-1-yl)pyridin-3-yl)amino)picolinate], the IC50 is below 500 nM.

For `N#Cc1cc(Cc2ccnc(Cl)c2)c(C2CC2)nc1N1CCN(C(=O)C2CC2)[C@H](C2CC2)C1` [Compound 685, (R)-5-((2-chloropyridin-4-yl)methyl)-2-(4-(cyclopropanecarbonyl)-3-cyclopropylpiperazin-1-yl)-6-cyclopropylnicotinonitrile], the IC50 was 1000 to 10000 nM.

On to `COCCC(=O)N1CCN(c2nc(C3CC3)c(N(C)c3ccnc(Cl)c3)cc2C#N)C[C@H]1C` [Compound 699, (R)-5-((2-chloropyridin-4-yl)(methyl)amino)-6-cyclopropyl-2-(4-(3-methoxypropanoyl)-3-methylpiperazin-1-yl)nicotinonitrile], for which the half-maximal inhibitory concentration (IC50) is below 500 nM.

For `N#Cc1cc(-c2cc(CCN)nc(N)n2)c(C2CC2)nc1N1CCN(C(=O)C2CC2)[C@H](C2CC2)C1` [Compound 701, (R)-5-(2-amino-6-(2-aminoethyl)pyrimidin-4-yl)-2-(4-(cyclopropanecarbonyl)-3-cyclopropylpiperazin-1-yl)-6-cyclopropylnicotinonitrile], the IC50 was below 500 nM.

As for `C[C@@H]1CN(c2nc(C3CC3)c(Oc3ccnc(Cl)c3)cc2C#N)CCN1C(=O)CCO` [Compound 704, (R)-5-((2-chloropyridin-4-yl)oxy)-6-cyclopropyl-2-(4-(3-hydroxypropanoyl)-3-methylpiperazin-1-yl)nicotinonitrile], the IC50 was below 500 nM.

Regarding `CC(C)(C)OC(=O)Nc1cnnc(-c2cc(C#N)c(N3CCN(C(=O)CCO)[C@H](C4CC4)C3)nc2C2CC2)c1` [Compound 723, (R)-tert-butyl(6-(5-cyano-2-cyclopropyl-6-(3-cyclopropyl-4-(3-hydroxypropanoyl)piperazin-1-yl)pyridin-3-yl)pyridazin-4-yl)carbamate], the IC50 was below 500 nM.

Regarding `COCCC(=O)N1CCN(c2nc(C3CC3)c(Nc3ccnc(C(N)=O)c3)cc2C#N)C[C@H]1C` [Compound 729, (R)-4-(5-cyano-2-cyclopropyl-6-(4-(3-methoxypropanoyl)-3-methylpiperazin-1-yl)pyridin-3-ylamino)picolinamide], the IC50 was below 500 nM.

Take `N#Cc1cc(Oc2cc(Cl)ccn2)c(C2CC2)nc1N1CCN(C(=O)CCO)[C@H](C2CC2)C1` [Compound 734, (R)-5-((4-chloropyridin-2-yl)oxy)-6-cyclopropyl-2-(3-cyclopropyl-4-(3-hydroxypropanoyl)piperazin-1-yl)nicotinonitrile]: the IC50 is below 500 nM.

For `COC(=O)CCC(=O)N1CCN(c2nc(C3CC3)c(-c3ccnc(Cl)c3)cc2C#N)C[C@H]1C1CC1` [Compound 739, (R)-methyl 4-(4-(2′-chloro-5-cyano-2-cyclopropyl-3,4′-bipyridin-6-yl)-2-cyclopropylpiperazin-1-yl)-4-oxobutanoate], the IC50 is below 500 nM.

Consider `C=Cc1cc(-c2c(C3CC3)nc(N3CCN(C(=O)OC(C)(C)C)[C@H](C4CC4)C3)c(C#N)c2C)cnn1` [Compound 772, (R)-tert-butyl 4-(3-cyano-6-cyclopropyl-4-methyl-5-(6-vinylpyridazin-4-yl)pyridin-2-yl)-2-cyclopropylpiperazine-1-carboxylate], for which the half-inhibitory concentration (IC50) was 500 to 1000 nM.

In the case of `COCCC(=O)N1CCN(c2nc(C3CC3)c(-c3ccnc(OS(=O)(=O)C(F)(F)F)c3)cc2C#N)C[C@H]1C` [Compound 779, (R)-5-cyano-2-cyclopropyl-6-(4-(3-methoxypropanoyl)-3-methylpiperazin-1-yl)-[3,4′-bipyridin]-2′-yl trifluoromethanesulfonate], the concentration for half-maximal inhibition (IC50) was 1000 to 10000 nM.

For `C=Cc1cnnc(-c2c(C3CC3)nc(N3CCN(C(=O)C[C@@H]4CCO4)[C@H](C4CC4)C3)c(C#N)c2C)c1` [Compound 780, 6-cyclopropyl-2-((R)-3-cyclopropyl-4-(2-((S)-oxetan-2-yl)acetyl)piperazin-1-yl)-4-methyl-5-(5-vinylpyridazin-3-yl)nicotinonitrile], the IC50 was below 500 nM.

As to `C=Cc1cnc2c(-c3cc(C#N)c(N4CCN(C(=O)/C=C/CCO)[C@H](C(C)C)C4)nc3C3CC3)cccc2n1` [Compound 790, (R)-6-cyclopropyl-2-(4-(5-hydroxypent-2-enoyl)-3-isopropylpiperazin-1-yl)-5-(2-vinylquinoxalin-5-yl)nicotinonitrile], the IC50 is below 500 nM.

In the case of `C=Cc1ccnc(Nc2cc(C#N)c(N3CCN(C(=O)/C=C/CCO)[C@H](C(C)C)C3)nc2C2CC2)c1` [Compound 791, (R,E)-6-cyclopropyl-2-(4-(5-hydroxypent-2-enoyl)-3-isopropylpiperazin-1-yl)-5-((4-vinylpyridin-2-yl)amino)nicotinonitrile], the IC50 was below 500 nM.

For `C=Cc1cc(-c2c(C3CC3)nc(N3CCN(C(=O)/C=C/CCO)[C@H](C(C)C)C3)c(C#N)c2C)ccn1` [Compound 795, (R,E)-2-cyclopropyl-6-(4-(5-hydroxypent-2-enoyl)-3-isopropylpiperazin-1-yl)-4-methyl-2′-vinyl-3,4′-bipyridine-5-carbonitrile], the IC50 was below 500 nM.

As to `C=Cc1ccnc(Nc2cc(C#N)c(N3CCN(C(=O)/C=C/CCO)[C@H](C4CC4)C3)nc2C2CC2)c1` [Compound 798, (R,E)-6-cyclopropyl-2-(3-cyclopropyl-4-(5-hydroxypent-2-enoyl)piperazin-1-yl)-5-((4-vinylpyridin-2-yl)amino)nicotinonitrile], the concentration for half-maximal inhibition (IC50) was below 500 nM.

With `C=Cc1cc(-c2cc(C#N)c(N3CCN(C(=O)CC4CCC(=O)O4)[C@H](C4CC4)C3)nc2C2CC2)ccn1` (stereo partly drawn) [Compound 802, 2-cyclopropyl-6-((3R)-3-cyclopropyl-4-(2-(5-oxotetrahydrofuran-2-yl)acetyl)piperazin-1-yl)-2′-vinyl-[3,4′-bipyridine]-5-carbonitrile], the IC50 is below 500 nM.

`C=Cc1cc(-c2cc(C#N)c(N3CCN(C(=O)CN4CCCC4=O)[C@H](C4CC4)C3)nc2C2CC2)ccn1` [Compound 814, (R)-2-cyclopropyl-6-(3-cyclopropyl-4-(2-(2-oxopyrrolidin-1-yl)acetyl)piperazin-1-yl)-2′-vinyl-3,4′-bipyridine-5-carbonitrile]: the IC50 lay within 500 to 1000 nM.

For `C=Cc1ccnc(Nc2cc(C#N)c(N3CCN(C(=O)CN4CCCC4=O)[C@H](C4CC4)C3)nc2C2CC2)c1` [Compound 816, (R)-6-cyclopropyl-2-(3-cyclopropyl-4-(2-(2-oxopyrrolidin-1-yl)acetyl)piperazin-1-yl)-5-((4-vinylpyridin-2-yl)amino)nicotinonitrile], the IC50 was in the range of 500 to 1000 nM.

On to `C=Cc1cc(-c2c(C3CC3)nc(N3CCN(C(=O)C=C4CCC4)[C@H](C4CC4)C3)c(C#N)c2C)ccn1` [Compound 820, (R)-6-(4-(2-cyclobutylideneacetyl)-3-cyclopropylpiperazin-1-yl)-2-cyclopropyl-4-methyl-2′-vinyl-3,4′-bipyridine-5-carbonitrile], for which the IC50 was below 500 nM.

On to `C=Cc1cc(-c2cc(C#N)c(N3CCN(C(=O)C[C@H]4CCC(=O)O4)[C@H](C4CC4)C3)nc2C2CC2)ccn1` [Compound 821], for which the IC50 is below 500 nM.

Turning to `N#Cc1cc(Nc2ccnc(CO)c2)c(C2CC2)nc1N1CCN(C(=O)C[C@H]2CCO2)[C@H](C2CC2)C1` [Compound 824, 6-cyclopropyl-2-((R)-3-cyclopropyl-4-(2-((R)-oxetan-2-yl)acetyl)piperazin-1-yl)-5-((2-(hydroxymethyl)pyridin-4-yl)amino)nicotinonitrile], the IC50 was below 500 nM.

For `C=Cc1cc(-c2c(C3CC3)nc(N3CCN(C(=O)CCC4CC4)[C@H](C4CC4)C3)c(C#N)c2C)ccn1` [Compound 825, (R)-2-cyclopropyl-6-(3-cyclopropyl-4-(3-cyclopropylpropanoyl)piperazin-1-yl)-4-methyl-2′-vinyl-3,4′-bipyridine-5-carbonitrile], the IC50 is below 500 nM.

As for `C=Cc1cc(-c2c(C3CC3)nc(N3CCN(C(=O)CCC4CCC4)[C@H](C4CC4)C3)c(C#N)c2C)ccn1` [Compound 826, (R)-6-(4-(3-cyclobutylpropanoyl)-3-cyclopropylpiperazin-1-yl)-2-cyclopropyl-4-methyl-2′-vinyl-3,4′-bipyridine-5-carbonitrile], the IC50 is below 500 nM.

As to `C=Cc1cc(-c2c(C3CC3)nc(N3CCN(C(=O)CCCCC)[C@H](C4CC4)C3)c(C#N)c2C)ccn1` [Compound 827, (R)-2-cyclopropyl-6-(3-cyclopropyl-4-hexanoylpiperazin-1-yl)-4-methyl-2′-vinyl-3,4′-bipyridine-5-carbonitrile], the IC50 was below 500 nM.

With `C=Cc1ccnc(Nc2cc(C#N)c(N3CCN(C(=O)C[C@H]4CCCO4)[C@H](C4CC4)C3)nc2C2CC2)c1` [Compound 828], the IC50 was below 500 nM.

For `C=Cc1ccnc(Nc2cc(C#N)c(N3CCN(C(=O)CCCCC)[C@H](C4CC4)C3)nc2C2CC2)c1` [Compound 830, (R)-6-cyclopropyl-2-(3-cyclopropyl-4-hexanoylpiperazin-1-yl)-5-(4-vinylpyridin-2-ylamino)nicotinonitrile], the IC50 was below 500 nM.
